{"source": "patent US20250195482A1", "about": "“METHOD AND COMPOSITION FOR IMPROVING HEALTH OF HAIR FOLLICLES, SCALP OR HAIR OF MAMMALS” (NANJING NUTRABUILDING BIO-TECH CO., LTD., priority 2022, published 2025)", "assay_type_in_all_cases": "cell-based", "key": {"M. globosa": {"tested_on": "M. globosa", "test": "Growth inhibition of M. globosa (optical density)", "details": "1000 μM DHB, 600 nm, 48 h shaking at 30° C., mDixon medium; control 4.1", "experimental": "(§1) Growth inhibition of M. globosa, M. restricta, Propionibacterium acnes, Staphylococcus aureus and Staphylococcus epidermidis was tested using 50-ml tubes with 10 ml of mDixon medium. Cultures were inoculated to an optical density (OD) of 0.2, the above microorganisms were loaded into each culture dish, and challenged with test material (control and DHB with different concentrations: 0.001 μM, 0.01 μM, 0.1 μM, 1 μm, 10 μM, 100 μM and 1000 μM). After 48 h of shaking at 30° C., the OD was measured by spectrophotometer and recorded."}, "M. restricta": {"tested_on": "M. restricta", "test": "Growth inhibition of M. restricta (optical density)", "details": "1000 μM DHB, 600 nm, 48 h shaking at 30° C., mDixon medium; control 6.5", "experimental": "as §1"}, "Propionibacterium acnes": {"tested_on": "Propionibacterium acnes", "test": "Growth inhibition of Propionibacterium acnes (optical density)", "details": "1000 μM DHB, 530 nm, 48 h shaking at 30° C.; control 2.6", "experimental": "as §1"}, "Staphylococcus aureus": {"tested_on": "Staphylococcus aureus", "test": "Growth inhibition of Staphylococcus aureus (optical density)", "details": "1000 μM DHB, 530 nm, 48 h shaking at 30° C.; control 2.1", "experimental": "as §1"}, "[1]": {"tested_on": "Staphylococcus epidermidis", "test": "Growth inhibition of Staphylococcus epidermidis (optical density)", "details": "1000 μM DHB, 530 nm, 48 h shaking at 30° C.; control 1.8", "experimental": "as §1"}}}
{"smiles": "COc1ccc2c(c1OC)CN1CCc3cc4c(cc3C1=C2)OCO4", "note": "[DHB, Dihydroberberine]", "values": [{"measurement": "optical density of M. globosa", "setting": "M. globosa", "value": 0.2}, {"measurement": "optical density of M. restricta", "setting": "M. restricta", "value": 1.1}, {"measurement": "optical density of Propionibacterium acnes", "setting": "Propionibacterium acnes", "value": 0.9}, {"measurement": "optical density of Staphylococcus aureus", "setting": "Staphylococcus aureus", "value": 0.3}, {"measurement": "optical density of Staphylococcus epidermidis", "setting": "[1]", "value": 0.3}]}
